Measured values published in patent US6040300A, “Method of preventing colon cancer with vitamin D3 analogues” (Arch Development Corporation, priority 1995, dated 2000).

Experiments:
[1] = Serum 1α,25(OH)2 D3 levels (competitive protein-binding assay, calf thymus receptor); assay type: in vivo, Male albino Fisher-344 rats; settings: all test groups
Description: Male albino Fisher-344 rats, initially weighing ~90-100 g, were used in these studies. On arrival, the animals were quarantined for 1 wk and then randomly divided into the following six test groups: groups 1 and 2, standard vitamin D-sufficient diet; groups 3 and 4, standard diet supplemented with RO24-5531 (2.50 nmol/kg of feed); and groups 5 and 6, standard vitamin D-sufficient diet. […] Next, the rats in groups 2,4 and 6 were given subcutaneous injections of azoxymethane (AOM, Sigma Chemical Co., St. Louis, Mo.), 15 mg/kg body wt once a wk for 2 wks, while the rats in groups 1,3 and 5 received AOM-vehicle (saline). […]
All rats were sacrificed in the non-fasting state after 34 wks on these protocols between 9 a.m. and 11 a.m. and sera obtained for measurement of calcium, phosphate, 25(OH)D3 and 1α,25(OH)2 D3 levels. […] All specimens were evaluated by a pathologist who was unaware of the dietary or AOM treatment history. […]
Serum calcium and phosphorus were measured by standard colorimetric methods (Kessler and Wolfman, Clin. Chem. 10:686-703, 1964). Serum 25(OH)D3 levels were measured by radioimmunoassay, using a kit and procedure supplied by Incstar (Stillwater, Minn.). […]
Results are expressed as means ±SE of n determinations. Data were analyzed by Fisher's exact test (two-tailed) or analysis of variance (ANOVA) as appropriate (Snedecor and Cochran, Statistical Methods, 1980). […]

[2] = Serum phosphorus (standard colorimetric method); assay type: in vivo, Male albino Fisher-344 rats; settings: for Serum Levels P: mean ± S.E.M.
Description: Male albino Fisher-344 rats, initially weighing ~90-100 g, were used in these studies. On arrival, the animals were quarantined for 1 wk and then randomly divided into the following six test groups: groups 1 and 2, standard vitamin D-sufficient diet; groups 3 and 4, standard diet supplemented with RO24-5531 (2.50 nmol/kg of feed); and groups 5 and 6, standard vitamin D-sufficient diet. […] Next, the rats in groups 2,4 and 6 were given subcutaneous injections of azoxymethane (AOM, Sigma Chemical Co., St. Louis, Mo.), 15 mg/kg body wt once a wk for 2 wks, while the rats in groups 1,3 and 5 received AOM-vehicle (saline).
Groups 1 and 2 were then maintained on the standard diet for an additional […]. Groups 3 and 4 were maintained on the RO24-5531 supplemented diets for the initial five wks and then switched to the standard diet without RO24-5531 for an additional 29 wks (initiation arm), whereas groups 5 and 6 were maintained on the standard diet without supplemental RO24-5531 for the initial five wks and then switched to the RO24-5531 supplemented diet for an additional 29 wks (post-initiation arm).
All rats were sacrificed in the non-fasting state after 34 wks on these protocols between 9 a.m. and 11 a.m. and sera obtained for measurement of calcium, phosphate, 25(OH)D3 and 1α,25(OH)2 D3 levels. The rats' colons were removed, opened, washed with normal saline and examined macroscopically for the presence of tumors. Resected tumors were weighed, and were fixed in 10% buffered formalin for microscopic examination. After formalin fixation, tissue specimens were paraffin-embedded, sectioned, and stained with hematoxylin and eosin as described previously (Sitrin et al., 1991), for light microscopic examination. All specimens were evaluated by a pathologist who was unaware of the dietary or AOM treatment history. Macroscopic and microscopic lesions were classified as either benign (adenoma) or malignant (adenocarcinoma).
Serum calcium and phosphorus were measured by standard colorimetric methods (Kessler and Wolfman, Clin. Chem. 10:686-703, 1964). Serum 25(OH)D3 levels were measured by radioimmunoassay, using a kit and procedure supplied by Incstar (Stillwater, Minn.). Serum 1α,25(OH)2 D3 levels were assayed by a non-equilibrium competitive protein-binding assay based on a calf thymus receptor, using a kit and procedure supplied by Incstar, as previously described (Sitrin et al., 1991).
Results are expressed as means ±SE of n determinations. Data were analyzed by Fisher's exact test (two-tailed) or analysis of variance (ANOVA) as appropriate (Snedecor and Cochran, Statistical Methods, 1980). Values of p <0.05 were considered statistically significant.

C=C1/C(=C\C=C2/CCC[C@]3(C)C([C@H](C)CC#CC(O)(C(F)(F)F)C(F)(F)F)=CC[C@@H]23)C[C@@H](O)C[C@@H]1O [RO24-5531, 26,26,26,27,27,27-hexafluoro-1α,25-dihydroxy-16-ene-23-yne-cholecalciferol]
effect on serum 1α,25(OH)2 D3 levels [1]: no differences were observed | Serum Levels P ([2]; group 3: RO24-5531/SD, no AOM, n=10): 10.2 ± 0.7 mg/dL | Serum Levels P ([2]; group 4: RO24-5531/SD (initiation arm), AOM, n=5): 9.9 ± 0.8 mg/dL | Serum Levels P ([2]; group 5: SD/RO24-5531, no AOM, n=6): 9.2 ± 0.3 mg/dL | Serum Levels P ([2]; group 6: SD/RO24-5531 (post-initiation arm), AOM, n=11): 9.0 ± 0.8 mg/dL | effect on serum levels of phosphorus ([2]; groups 4 and 6): significantly altered the serum levels of calcium, phosphorus or 25(OH)D3
